Data taken from patent publication US20240245682A1, “ALPHA-V-BETA-8 INTEGRIN INHIBITORS AND USES THEREOF” (Pliant Therapeutics, Inc., priority 2022, published 2024).
“Also recorded” adds a separate entry of the source.

Assays:
human integrin αVβ6 = human integrin αVβ6 (Homo sapiens, UniProt P06756+P18564); assay: AlphaScreen proximity-based integrin binding assay with TGF-b1 LAP; settings: values given as ranges
Outline: (§1)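 Purified human integrin incubated with compound, TGF-b1 LAP, biotinylated anti-LAP antibody and acceptor beads for 2 h, then streptavidin donor beads 30 min, room temperature, in 50 mM Tris-HCl pH 7.5, 0.1% BSA, 1 mM CaCl2/MgCl2. AlphaScreen signal (680 nm excitation, 520-620 nm emission); IC50 by four-parameter fit.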

human integrin αVβ1 = human integrin αVβ1 (Homo sapiens, UniProt P05556+P06756); assay: as above; settings: values given as ranges
human integrin αVβ1, sequence (P06756 31-992 limits assumed): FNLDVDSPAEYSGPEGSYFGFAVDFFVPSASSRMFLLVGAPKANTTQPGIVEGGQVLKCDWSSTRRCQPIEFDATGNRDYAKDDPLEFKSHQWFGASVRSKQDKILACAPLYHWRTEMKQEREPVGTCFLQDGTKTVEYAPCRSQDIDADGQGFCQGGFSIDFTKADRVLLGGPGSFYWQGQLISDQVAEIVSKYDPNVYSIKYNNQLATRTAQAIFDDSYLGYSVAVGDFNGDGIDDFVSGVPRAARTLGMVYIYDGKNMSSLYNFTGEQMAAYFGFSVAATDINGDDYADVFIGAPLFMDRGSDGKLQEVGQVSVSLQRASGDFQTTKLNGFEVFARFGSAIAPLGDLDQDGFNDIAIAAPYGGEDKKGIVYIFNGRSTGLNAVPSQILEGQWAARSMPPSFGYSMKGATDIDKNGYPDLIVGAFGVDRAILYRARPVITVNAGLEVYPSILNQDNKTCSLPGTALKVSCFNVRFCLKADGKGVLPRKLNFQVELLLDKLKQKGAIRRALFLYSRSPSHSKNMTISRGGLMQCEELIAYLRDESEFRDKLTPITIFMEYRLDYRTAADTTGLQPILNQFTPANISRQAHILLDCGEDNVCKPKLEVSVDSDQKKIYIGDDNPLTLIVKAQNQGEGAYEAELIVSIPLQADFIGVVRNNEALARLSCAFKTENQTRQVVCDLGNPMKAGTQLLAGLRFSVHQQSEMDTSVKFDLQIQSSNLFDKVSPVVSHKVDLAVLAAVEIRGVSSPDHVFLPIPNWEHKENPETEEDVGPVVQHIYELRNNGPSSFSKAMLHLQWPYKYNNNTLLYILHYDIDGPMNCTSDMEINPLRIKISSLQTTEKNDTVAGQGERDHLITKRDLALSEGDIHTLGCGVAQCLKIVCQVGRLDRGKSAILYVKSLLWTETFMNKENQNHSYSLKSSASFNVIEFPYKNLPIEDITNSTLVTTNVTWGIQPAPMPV
human integrin αVβ1, sequence (P05556 21-728 limits assumed): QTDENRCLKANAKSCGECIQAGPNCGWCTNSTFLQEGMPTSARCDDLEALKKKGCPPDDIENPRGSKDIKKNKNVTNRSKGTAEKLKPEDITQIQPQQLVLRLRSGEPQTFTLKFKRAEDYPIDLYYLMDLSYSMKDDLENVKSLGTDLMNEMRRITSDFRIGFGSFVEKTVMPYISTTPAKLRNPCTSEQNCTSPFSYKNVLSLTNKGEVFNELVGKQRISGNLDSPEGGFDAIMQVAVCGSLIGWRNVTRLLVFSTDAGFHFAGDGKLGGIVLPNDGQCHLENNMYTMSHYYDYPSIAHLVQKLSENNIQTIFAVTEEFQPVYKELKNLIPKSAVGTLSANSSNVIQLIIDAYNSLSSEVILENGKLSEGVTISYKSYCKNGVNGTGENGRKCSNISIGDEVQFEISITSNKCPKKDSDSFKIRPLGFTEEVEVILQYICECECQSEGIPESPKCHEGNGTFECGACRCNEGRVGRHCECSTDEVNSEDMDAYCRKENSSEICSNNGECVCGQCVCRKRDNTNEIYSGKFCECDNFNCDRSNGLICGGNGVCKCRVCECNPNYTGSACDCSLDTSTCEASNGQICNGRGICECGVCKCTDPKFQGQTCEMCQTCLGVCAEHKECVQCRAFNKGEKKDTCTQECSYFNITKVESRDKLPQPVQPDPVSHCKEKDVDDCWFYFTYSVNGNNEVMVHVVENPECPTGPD
Outline: as §1

human integrin αVβ8 = human integrin αVβ8 (Homo sapiens, UniProt P06756+P26012); assay: as above; settings: values given as ranges
human integrin αVβ8, sequence (P06756 31-992 limits assumed): as the sequence (P06756 31-992 limits assumed) above
human integrin αVβ8, sequence (P26012 43-684 limits assumed): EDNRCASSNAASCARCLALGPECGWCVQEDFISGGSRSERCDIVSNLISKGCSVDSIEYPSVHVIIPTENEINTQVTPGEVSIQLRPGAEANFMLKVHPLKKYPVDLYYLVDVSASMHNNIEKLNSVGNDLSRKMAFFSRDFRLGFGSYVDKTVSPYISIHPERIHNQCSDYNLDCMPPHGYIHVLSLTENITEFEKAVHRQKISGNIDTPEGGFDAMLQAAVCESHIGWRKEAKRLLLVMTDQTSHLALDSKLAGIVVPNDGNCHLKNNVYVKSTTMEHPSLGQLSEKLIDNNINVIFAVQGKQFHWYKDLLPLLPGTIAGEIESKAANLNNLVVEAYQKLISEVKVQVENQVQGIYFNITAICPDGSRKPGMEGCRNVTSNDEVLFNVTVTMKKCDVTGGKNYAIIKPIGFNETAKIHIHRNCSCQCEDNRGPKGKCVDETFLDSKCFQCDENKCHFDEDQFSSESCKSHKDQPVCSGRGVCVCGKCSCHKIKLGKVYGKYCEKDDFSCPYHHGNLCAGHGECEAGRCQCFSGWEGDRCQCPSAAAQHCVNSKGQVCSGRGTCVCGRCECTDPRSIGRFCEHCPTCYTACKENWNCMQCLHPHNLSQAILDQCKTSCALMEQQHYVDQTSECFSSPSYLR
Outline: as §1

[1] = test system: human breast tumor tissue; assay: Ex vivo cultured human breast tumor tissue, immunofluorescence of fibrotic markers; assay type: cell-based
Method: Integrin αVβ1 is expressed in multiple solid tumors and drives the adhesion of cancer-associated fibroblasts (CAFs) to latent TGFβ. In human tumor tissues and in CAFs, αVβ1 protein expression was evaluated via immunohistochemistry (IHC) and custom […] assay, respectively. CAF adhesion to the TGFβ latency-associated peptide (LAP) was quantified in the presence or absence of Compound 39 in vitro by high-content microscopy imaging. The activity of Compound 39 in combination with anti-mPD-1 on fibrotic markers was evaluated in the EMT6 tumor model in vivo by gene expression analysis using the Nanostring® nCounter analysis system. Compound 39-treated human breast tumor tissue was analyzed for fibrotic marker α-smooth muscle actin (αSMA) using immunofluorescence.
αvβ1 protein expression was evaluated in human tumor tissues via immunohistochemistry. αvβ1 protein levels in primary human CAFs isolated from pancreatic carcinoma, lung adenocarcinoma, and lung squamous cell carcinoma were quantified via custom electrochemiluminescence assay. CAF adhesion to latency associated peptide (LAP), the integrin-binding region of latent TGF-β, was quantified in the presence or absence of Compound 39 of the examples and a small molecule selective inhibitor of αvβ1 by high-content imaging in vitro. […]

EMT6 tumors = assay: EMT6 (breast) syngeneic tumor model (Example B6); assay type: in vivo, Balb/c mice
Method: The therapeutic impact of Compound 39 of the examples in combination with anti PD-1 was studied for several […] mouse models, as shown in Table B-3. For each model, four dosing regimens were studied, using a group size of 10 mice per dosing regimen per model, and a total of 40 mice per model.
Mice were shaved and tumor cells as indicated in Table B-3 were subcutaneously implanted in a 100 μl cell suspension that was subcutaneously injected into the front/rear flank of each mouse (as indicated in Table B-3).
There was no dosing holiday. Dietary supplements were uniform for all animals in the same group.
Animals were monitored weekly for changes in tumor volume. Tumors were measured at least once a week using calipers. Tumor volume was calculated using the equation: (longest diameter*shortest diameter^2)/2.
The study was terminated four weeks after the first dose or when the tumor sizes reached greater than 3000 mm^3, whichever was first. Mice were euthanized and tumors were collected.
Tumor tissues (50 to 80 mg) were homogenized using metal beads in pre-chilled RINO screw cap tubes, using lysis matrix (MP Lysing Matrix S [⅛″], 2 mL Tube MP Biomedical Cat #116925100) on MP Fast Prep 24 instrument. Tumor RNA extraction from the tumor homogenate used the Ambion Purelink, RNA kit (Cat #12183018A) according to the manufacturers' protocol. A total of 100 ng RNA was used for the Nanostring analysis of the immuno-oncology and fibrosis panel, and 300 ng RNA was used for the analysis of the integrin panel. RNA was hybridized to gene expression Plexset according to the manufacturers' protocol. Hybridized reactions were read on nCounter MAX (Nanostring), and data were analyzed using nCounter software.
Table B-5 lists the catalog numbers of the antibodies used in the immunohistochemical (IHC) studies. Quantification of staining was done using the HALO software package (Indica Labs, Albaquerque, NM).

[2] = test system: human breast and melanoma tumor tissues; assay: Ex vivo cultured human breast and melanoma tumor tissues (Example B9); assay type: cell-based
Method: Inhibition of αvβ1 and TGF-β mediated by Compound 39 of the examples was monitored via cell adhesion assays and transcriptomic analyses. αvβ1 protein expression was evaluated on human tumor tissues via immunohistochemistry using an indigenously developed anti-αvβ1 antibody. Efficacy of Compound 39 monotherapy and in combination with ICB was evaluated in syngeneic mouse models bearing EMT6 and Pan02 tumors. Animal survival, tumor growth, transcriptomic analyses, tissue fibrosis, and TILs were monitored along with circulating lymphocytes and cytokines. Tissue and circulating biomarkers of response to Compound 39 were identified. Human breast and melanoma tumor tissues were cultured ex vivo and Compound 39 activity was assessed by measuring CD8+ cytotoxic T cells and tumor apoptosis.

[3] = Compound 39+α-PD1 vs vehicle+αPD1, FIG. 48, model not stated

human integrin αVβ6, sequence (P06756 31-992 limits assumed): as the sequence (P06756 31-992 limits assumed) above
human integrin αVβ6, sequence (P18564 22-707 limits assumed): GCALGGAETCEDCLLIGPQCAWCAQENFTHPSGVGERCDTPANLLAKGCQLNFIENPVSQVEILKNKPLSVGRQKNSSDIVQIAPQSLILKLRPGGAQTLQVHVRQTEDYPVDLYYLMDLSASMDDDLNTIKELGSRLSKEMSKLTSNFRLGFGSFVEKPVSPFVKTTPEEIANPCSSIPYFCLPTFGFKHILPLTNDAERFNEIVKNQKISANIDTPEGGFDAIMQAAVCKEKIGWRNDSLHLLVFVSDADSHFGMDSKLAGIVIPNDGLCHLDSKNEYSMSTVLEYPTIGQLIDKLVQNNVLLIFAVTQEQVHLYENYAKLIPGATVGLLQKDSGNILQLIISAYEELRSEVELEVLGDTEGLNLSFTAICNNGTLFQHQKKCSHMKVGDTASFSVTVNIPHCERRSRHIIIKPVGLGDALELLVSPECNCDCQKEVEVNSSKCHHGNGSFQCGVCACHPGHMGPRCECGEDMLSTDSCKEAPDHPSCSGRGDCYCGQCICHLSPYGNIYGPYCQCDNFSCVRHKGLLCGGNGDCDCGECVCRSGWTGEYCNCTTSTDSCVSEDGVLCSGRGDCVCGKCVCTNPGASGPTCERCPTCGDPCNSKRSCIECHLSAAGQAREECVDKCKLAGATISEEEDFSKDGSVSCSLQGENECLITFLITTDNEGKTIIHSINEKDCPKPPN

Q: How did the IC50 (human integrin αVβ6) turn out when `Cc1ncnc(Cl)c1C1(C(=O)N[C@@H](CCOCCCCc2ccc3c(n2)NCCC3)C(=O)O)CC1` [Compound 39, N-(1-(4-chloro-6-methylpyrimidin-5-yl)cyclopropane-1-carbonyl)-O-(4-(5,6,7,8-tetrahydro-1,8-naphthyridin-2-yl)butyl)-L-homoserine] was run?
A: ≥ 500 nM

Q: What about the IC50 (human integrin αVβ1) of the same molecule?
A: < 50 nM

Q: What about the IC50 (human integrin αVβ8) of the same molecule?
A: < 50 nM

Q: And the “reduction of fibroblast activation marker αSMA” value ([1]; compared to vehicle-treated tissues, FIG. 106)?
A: 2.9 fold

Q: What about the “expression of fibrotic markers (αSMA, FAP)” value ([1]; in words) of the same molecule?
A: decreases; also recorded: reduced expression of fibrotic markers αSMA and FAP

Q: What about the IFNγ gene signature (EMT6 tumors; [3]) of the same molecule?
A: increases

Q: What about the TGFβ gene signatures (EMT6 tumors; [3]) of the same molecule?
A: Reduces

Q: What about the “fibrotic markers and tissue fibrosis in the tumor microenvironment” value (EMT6 tumors; Nanostring gene expression, Pico Sirius red, FIG. 107-112) of the same molecule?
A: reduces fibrotic markers; also recorded: significantly reduced fibrosis

Q: What about the TGFβ activity (EMT6 tumors; compared to vehicle, FIG. 33, model not given) of the same molecule?
A: reduced TGFβ activity

Q: What about the “expression of IFNγ-regulated gene Granzyme B” value (EMT6 tumors; compared to vehicle, FIG. 34A) of the same molecule?
A: increased expression

Q: What about the “expression of IFNγ-regulated gene IFNγ” value (EMT6 tumors; compared to vehicle, FIG. 34B) of the same molecule?
A: increased expression

Q: What about the “expression of IFNγ-regulated gene CXCL9” value (EMT6 tumors; compared to vehicle, FIG. 34C) of the same molecule?
A: increased expression

Q: What about the “expression of IFNγ-regulated gene PDL1” value (EMT6 tumors; compared to vehicle, FIG. 34D) of the same molecule?
A: increased expression

Q: What about the “cytotoxic CD8^+ T cells” value [2] of the same molecule?
A: significant increase in cytotoxic CD8^+T cells

Q: And the fibrotic markers [2]?
A: reduction in fibrotic markers
